Molecules are shown by their SMILES.

One series has as its target T1, cGMP-inhibited cAMP PDE (Oryctolagus cuniculus, UniProt G1ST54).
T1 construct: from tissue; host or cells: rabbit platelets
T1 sequence (G1ST54 1-1128): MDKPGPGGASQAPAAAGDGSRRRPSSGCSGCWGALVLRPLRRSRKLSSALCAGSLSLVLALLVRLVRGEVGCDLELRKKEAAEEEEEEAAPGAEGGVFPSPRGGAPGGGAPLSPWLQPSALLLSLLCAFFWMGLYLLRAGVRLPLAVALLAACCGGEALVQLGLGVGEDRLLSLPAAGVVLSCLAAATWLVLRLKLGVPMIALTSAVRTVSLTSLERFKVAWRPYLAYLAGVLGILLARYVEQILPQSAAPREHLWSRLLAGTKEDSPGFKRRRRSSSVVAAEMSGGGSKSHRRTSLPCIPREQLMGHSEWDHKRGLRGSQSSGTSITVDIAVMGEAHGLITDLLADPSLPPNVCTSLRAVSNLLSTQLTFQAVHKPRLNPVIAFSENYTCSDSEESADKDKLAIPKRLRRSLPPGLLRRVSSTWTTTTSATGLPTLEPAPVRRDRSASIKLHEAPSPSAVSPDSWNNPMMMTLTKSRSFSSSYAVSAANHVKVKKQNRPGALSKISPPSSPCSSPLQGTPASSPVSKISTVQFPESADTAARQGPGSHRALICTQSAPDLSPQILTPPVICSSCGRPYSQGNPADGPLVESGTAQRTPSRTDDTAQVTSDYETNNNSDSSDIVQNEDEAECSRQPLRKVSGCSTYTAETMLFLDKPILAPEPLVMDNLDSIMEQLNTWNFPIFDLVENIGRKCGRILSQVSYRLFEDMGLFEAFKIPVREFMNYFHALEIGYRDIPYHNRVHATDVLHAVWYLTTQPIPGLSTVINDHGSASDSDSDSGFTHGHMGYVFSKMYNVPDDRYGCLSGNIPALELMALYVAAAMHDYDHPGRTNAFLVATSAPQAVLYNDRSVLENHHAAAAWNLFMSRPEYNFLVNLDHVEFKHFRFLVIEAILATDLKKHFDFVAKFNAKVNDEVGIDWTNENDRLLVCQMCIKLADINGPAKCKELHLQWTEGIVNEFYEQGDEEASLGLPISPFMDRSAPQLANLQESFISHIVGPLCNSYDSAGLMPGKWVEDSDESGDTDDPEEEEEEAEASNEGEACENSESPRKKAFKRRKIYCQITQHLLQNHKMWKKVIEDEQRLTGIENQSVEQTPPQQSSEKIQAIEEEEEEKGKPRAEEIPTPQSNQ
Kind of series: PDE inhibition: cGMP-inhibited cAMP PDE from rabbit platelets. Format: biochemical. The conditions noted are these: in vitro. The method, then:
(§1) Phosphodiesterase activity
(§2) Compound affinities for cGMP and cAMP PDEs are assessed by determination of their IC50 values (the concentration of inhibitor required for 50% inhibition of enzyme activity). The PDE enzymes are isolated from rabbit platelets and rat kidney, essentially by the method of W. J. Thompson et al. (Biochem., 1971, 10, 311). The calcium/calmodulin (Ca/CAM)--independent cGMP PDE and the cGMP-inhibited cAMP PDE enzymes are obtained from rabbit platelets whilst, of the four major PDE enzymes of the rat kidney, the Ca/CAM-dependent cGMP PDE (fraction I) is isolated. Assays are performed using a modification of the "batch" method of W. J. Thompson and M. M. Appleman (Biochem., 1979, 18, 5228).

Series [1] deals with calcium/calmodulin (Ca/CAM)-independent cGMP PDE. As to the kind of experiment: PDE inhibition: Ca/CAM-independent cGMP PDE from rabbit platelets. Type of series: biochemical. To be noted: IC50 cGMP-inhibited cAMP PDE / IC50 Ca/CAM-independent cGMP PDE. The method, then: as §1, §2
Series [2] deals with T2, calcium/calmodulin (Ca/CAM)-independent cGMP PDE (Oryctolagus cuniculus, UniProt G1SX67).
T2 construct: The PDE enzymes are isolated from rabbit platelets and rat kidney; from tissue; host or cells: rabbit platelets
The series is described as above. Format: biochemical. The conditions noted are these: Ca/CAM-independent cGMP PDE, rabbit platelets, in vitro. The procedure:
as §1, §2

Series [3] is described as follows: Safety profile in rabbit (i.v. or i.d.). Format: in vivo.

Consider `CCCc1ccnc2c(=O)[nH]c(-c3cc(S(=O)(=O)N(C)CCC(=O)OCC)ccc3OCC)nc12` [Example 5, 2-[2 -Ethoxy-5-(N-2-ethoxycarbonylethyl-N-methyl-sulphamoyl)phenyl]-8-n-propylpyrido[3,2-d]pyrimidin-4(3H)-one], for which the IC50 on cGMP-inhibited cAMP PDE was determined as 8300 nM; in series [2] it was 14 nM. The “SELECTIVITY RATIO” value in series [1] is on record as 592.
The like results for `CCCc1ccnc2c(=O)[nH]c(-c3cc(NS(=O)(=O)c4cccnc4)ccc3OCC)nc12` [Example 12A, 2-[2-Ethoxy-5-(3-pyridylsulphonylamino)phenyl]-8-n-propylpyrido [3,2-d]pyrimidin-4(3H) -one] were, in that order, 4600 nM, 19 nM and 242.
Turning to `CCCc1ccnc2c(=O)[nH]c(-c3cc(S(=O)(=O)N4CCNCC4)ccc3OCC)nc12` [Example 3, 2-[2-Ethoxy-5-(1-piperazinylsulphonyl]phenyl]-8-n-propylprido [3,2-d]pyrimidin-4(3H) -one], in series [3] (doses up to 10 mg/kg i.d.), the untoward effects result is “no untoward effects being observed”.
In the case of `CCOc1ccc(S(=O)(=O)N2CCN(C)CC2)cc1-c1nc2c(C#N)ccnc2c(=O)[nH]1` [Example 24, 8-Cyano-2-[2-ethoxy-5-(4-methyl-1-piperazinyl-sulphonyl)phenyl]pyrido[3,2d]pyrimidin-4(3H)-one], the IC50 was over 100000 nM on cGMP-inhibited cAMP PDE and 25 nM in series [2]. For the same compound, the “SELECTIVITY RATIO” value in series [1] is given as > 4,000.
For `CCCc1ccnc2c(=O)[nH]c(-c3cc(S(=O)(=O)NCCN4CCOCC4)ccc3OCC)nc12` [Example 1, 2-[2-Ethoxy-5-(2-morpholinoethylsulphamoyl)phenyl]-8-n-propylprido [3,2,d]pyrimidin-4 (3H) -one], the IC50 was 19000 nM at cGMP-inhibited cAMP PDE and 21 nM in series [2]. Further, the untoward effects entry in series [3] (doses up to 3 mg/kg i.d.) is on record as “no untoward effects being observed”. In series [1], the “SELECTIVITY RATIO” value was 904.
Turning to `CCCc1ccnc2c(=O)[nH]c(-c3cc(S(=O)(=O)N4CCN(CCO)CC4)ccc3OCC)nc12` [Example 7, 2-{2-Ethoxy-5-[4-(2-hydroxyethyl)-1-piperazinyl-sulphony]phenyl}-8-n-propylprido[3.2-d]pyrimidin-4(3H)-one], the IC50 on cGMP-inhibited cAMP PDE came to 11000 nM; in series [2], 9.8 nM. The untoward effects entry in series [3] (doses up to 0.1 mg/kg i.v.) is given as “no untoward effects being observed”. Moreover, in series [1], the “SELECTIVITY RATIO” value is given as 1,122.
In the case of `CCCc1ccnc2c(=O)[nH]c(-c3cc(S(=O)(=O)N4CCC(C(=O)OCC)CC4)ccc3OCC)nc12` [Example 4, 2-[2-Ethoxy-5-(4-ethoxycarbonylpiperidinosulphonyl)-phenyl]-8-n-propylprido[3,2-d]pyrimidin-4(3H) -one], the IC50 worked out at 7600 nM at cGMP-inhibited cAMP PDE and 5.6 nM in series [2]. The “SELECTIVITY RATIO” value in series [1] is 1,357.
For `CCCc1ccnc2c(=O)[nH]c(-c3cc(S(=O)(=O)NCCN4CCNC4=O)ccc3OCC)nc12` [Example 8, 2-{2-Ethoxy-5-[2-(1-imidazolidin-2-onyl)ethyl-sulphamoyl]phenyl}-8-n-propylprido[3,2-d]pryimidin-4 (3H)-one], in series [3] (doses up to 3 mg/kg i.d.), the untoward effects entry is “no untoward effects being observed”.
`CCCc1ccnc2c(=O)[nH]c(-c3cc(S(=O)(=O)N4CCN(C)CC4)ccc3OCC)nc12` [Example 2, 2-[2-Ethoxy-5(4-methyl-l-piperazinylsulphonyl)phenyl]-8-n-propylrido [3,2-d]pyrimidin-4(3H)-one]: the IC50 against cGMP-inhibited cAMP PDE turned out to be 13000 nM; in series [2] it was 26 nM. In addition, the “SELECTIVITY RATIO” value in series [1] was determined as 500.
Regarding `CCCc1ccnc2c(=O)[nH]c(-c3cc(S(=O)(=O)N4CCC(C(=O)O)CC4)ccc3OCC)nc12` [Example 9, 2-[5-(4-Carboxypiperidinosulphonyl)-2-ethoxyphenyl]-8-n-propylprido [3,2-d]pyrimidin-4(3H)-one], the IC50 against cGMP-inhibited cAMP PDE turned out to be 220 nM; in series [2], 1.2 nM. In addition, the untoward effects result in series [3] (doses up to 1 mg/kg i.v.) was “no untoward effects being observed”. In addition, in series [1], the “SELECTIVITY RATIO” value is on record as 183.
